The record followed here is patent US20080207683A1, “BIARYL-S[…]-PYRAZOLO-PYRIDINE MODULATORS OF CATHEPSIN S” (priority 2007, published 2008).

The target in the first assay is T1, Human CatS (Homo sapiens, UniProt P25774).
T1 construct: made in house; host or cells: Sf9 insect cells (baculovirus vector pFB+HT)
T1 sequence (P25774 115-331): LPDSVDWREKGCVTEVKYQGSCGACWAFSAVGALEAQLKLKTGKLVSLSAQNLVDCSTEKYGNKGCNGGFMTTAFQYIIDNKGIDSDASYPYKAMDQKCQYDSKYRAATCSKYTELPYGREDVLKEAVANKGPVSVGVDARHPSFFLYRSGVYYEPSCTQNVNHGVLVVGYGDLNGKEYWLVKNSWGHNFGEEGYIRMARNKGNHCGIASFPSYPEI
The assay can be described thus: CatS inhibition of hydrolysis of fluorescent substrate Z-Val-Val-Arg-AFC. It counts as biochemical.
Conditions: not given
The procedure:
Human CatS was cloned into pFB+HT (from Stratagene clone), expressed in Sf9 cells, and purified over a Ni column. Fractions were concentrated and activated at pH 4.0 for 6 hr and then purified over a thiopropylsepharose column and eluted with 1×TBS, 500 mM NaCl, 1 mM EDTA, 25 mM DTT pH 7.6. Glycerol (50%) was added in a 1:1 (vol/vol) ratio (25% glycerol final) and protein was stored at −80° C. in 5 μL aliquots. […] The increase in fluorescence over time was monitored using λexcitation=400 nm and λemission=505 nm.
In equation 1, v is the initial rate measured in the presence of [I]0, the inhibitor concentration, using an enzyme concentration [E]0. v0 is the initial rate measured in the absence of inhibitor.
`CS(=O)(=O)N1CCc2c(c(-c3ccc(Cl)c(-c4cccc(C(=O)NCc5cc6ccccc6[nH]5)c4)c3)nn2CCCN2CCCC2)C1` [Example 13, 2′-Chloro-5′-[5-methanesulfonyl-1-(3-pyrrolidin-1-yl-propyl)-4,5,6,7-tetrahydro-1H-pyrazolo[4,3-c]pyridin-3-yl]-biphenyl-3-carboxylic acid (1H-indol-2-ylmethyl)-amide] registered a Ki of 330 nM.

The assay is the same for the next values; noted with them: apparent Ki, Morrison equation fit of initial rates; 10 μM Z-Val-Val-Arg-AFC, pH 5.0, 1.5 nM CatS; read-out: CatS Ki^app.
`CS(=O)(=O)N1CCc2c(c(-c3ccc(Cl)c(-c4cccc(C(=O)NCc5cccs5)c4)c3)nn2CCCN2CCCC2)C1` [Example 14, 2′-Chloro-5′-[5-methanesulfonyl-1-(3-pyrrolidin-1-yl-propyl)-4,5,6,7-tetrahydro-1H-pyrazolo[4,3-c]pyridin-3-yl]-biphenyl-3-carboxylic acid (thiophen-2-ylmethyl)-amide]: the Ki amounted to 350 nM.
On the same count and under the same terms, the result for `CS(=O)(=O)N1CCc2c(c(-c3ccc(Cl)c(-c4cccc(C(=O)NCCN5CCc6ccc(F)cc65)c4)c3)nn2CCCN2CCC(N3CCCC3=O)CC2)C1` [Example 33, 2′-Chloro-5′-(5-methanesulfonyl-1-{3-[4-(2-oxo-pyrrolidin-1-yl)-piperidin-1-yl]-propyl}-4,5,6,7-tetrahydro-1H-pyrazolo[4,3-c]pyridin-3-yl)-biphenyl-3-carboxylic acid [2-(6-fluoro-2,3-dihydro-indol-1-yl)-ethyl]-amide] reads 163 nM; that for `CC(=O)N1CCc2c(c(-c3ccc(Cl)c(-c4cccc(C(=O)NC(C)c5nc6cc(C)ccc6[nH]5)c4)c3)nn2CCCN2CCCC2)C1` (centres unmarked) [Example 39, 5′-[5-Acetyl-1-(3-pyrrolidin-1-yl-propyl)-4,5,6,7-tetrahydro-1H-pyrazolo[4,3-c]pyridin-3-yl]-2′-chloro-biphenyl-3-carboxylic acid [1-(5-methyl-1H-benzoimidazol-2-yl)-ethyl]-amide], 37 nM.
Regarding `CS(=O)(=O)N1CCc2c(c(-c3ccc(Cl)c(-c4cccc(C(=O)NCCNc5cccc6c5CCC6)c4)c3)nn2CCCN2CCCC2)C1` [Example 3, 2′-Chloro-5′-[5-methanesulfonyl-1-(3-pyrrolidin-1-yl-propyl)-4,5,6,7-tetrahydro-1H-pyrazolo[4,3-c]pyridin-3-yl]-biphenyl-3-carboxylic acid [2-(indan-4-ylamino)-ethyl]-amide], the Ki turned out to be 335 nM.
In the case of `CS(=O)(=O)N1CCc2c(c(-c3ccc(Cl)c(-c4cccc(C(=O)NCc5ncco5)c4)c3)nn2CCCN2CCCC2)C1` [Example 12, 2′-Chloro-5′-[5-methanesulfonyl-1-(3-pyrrolidin-1-yl-propyl)-4,5,6,7-tetrahydro-1H-pyrazolo[4,3-c]pyridin-3-yl]-biphenyl-3-carboxylic acid (oxazol-2-ylmethyl)-amide], the Ki was found to be 240 nM.
For `CN(C)S(=O)(=O)c1ccc2c(c1)N(CCNC(=O)c1cccc(-c3cc(-c4nn(CCCN5CCC(O)C5)c5c4CNCC5)ccc3Cl)c1)CC2` (centres unmarked) [Example 46, 2′-Chloro-5′-{1-[3-(3-hydroxy-pyrrolidin-1-yl)-propyl]-4,5,6,7-tetrahydro-1H-pyrazolo[4,3-c]pyridin-3-yl}-biphenyl-3-carboxylic acid [2-(6-dimethylsulfamoyl-2,3-dihydro-indol-1-yl)-ethyl]-amide], the Ki was determined as 510 nM.
Regarding `COc1ccc(NCCNC(=O)c2cccc(-c3cc(-c4nn(CCCN5CCCC5)c5c4CN(S(C)(=O)=O)CC5)ccc3Cl)c2)cn1` [Example 6, 2′-Chloro-5′-[5-methanesulfonyl-1-(3-pyrrolidin-1-yl-propyl)-4,5,6,7-tetrahydro-1H-pyrazolo[4,3-c]pyridin-3-yl]-biphenyl-3-carboxylic acid [2-(6-methoxy-pyridin-3-ylamino)-ethyl]-amide], the Ki is 317 nM.
Turning to `Cc1ccc2[nH]c(C(C)NC(=O)c3cccc(-c4cc(-c5nn(CCCN6CCCC6)c6c5CN(S(C)(=O)=O)CC6)ccc4Cl)c3)nc2c1` (centres unmarked) [Example 16, 2′-Chloro-5′-[5-methanesulfonyl-1-(3-pyrrolidin-1-yl-propyl)-4,5,6,7-tetrahydro-1H-pyrazolo[4,3-c]pyridin-3-yl]-biphenyl-3-carboxylic acid [1-(5-methyl-1H-benzoimidazol-2-yl)-ethyl]-amide], the Ki is 24 nM.
Turning to `CN(C)S(=O)(=O)c1ccc2c(c1)N(CCNC(=O)c1cccc(-c3cc(-c4nn(CCCN5CCCC5)c5c4CN(S(C)(=O)=O)CC5)ccc3Cl)c1)CC2` [Example 11, 2′-Chloro-5′-[5-methanesulfonyl-1-(3-pyrrolidin-1-yl-propyl)-4,5,6,7-tetrahydro-1H-pyrazolo[4,3-c]pyridin-3-yl]-biphenyl-3-carboxylic acid [2-(6-dimethylsulfamoyl-2,3-dihydro-indol-1-yl)-ethyl]-amide], the Ki is 135 nM.
For the compound `CC(NC(=O)c1cccc(-c2cc(-c3nn(CCCN4CCCC4)c4c3CN(S(C)(=O)=O)CC4)ccc2Cl)c1)c1nc2ccccc2[nH]1` (centres unmarked) [Example 18, 2′-Chloro-5′-[5-methanesulfonyl-1-(3-pyrrolidin-1-yl-propyl)-4,5,6,7-tetrahydro-1H-pyrazolo[4,3-c]pyridin-3-yl]-biphenyl-3-carboxylic acid [1-(1H-benzoimidazol-2-yl)-ethyl]-amide], the Ki is 22.6 nM.
Take `CS(=O)(=O)N1CCc2c(c(-c3ccc(Cl)c(-c4cccc(C(=O)NCc5nc6ccccc6s5)c4)c3)nn2CCCN2CCC(N3CCCC3=O)CC2)C1` [Example 34, 2′-Chloro-5′-(5-methanesulfonyl-1-{3-[4-(2-oxo-pyrrolidin-1-yl)-piperidin-1-yl]-propyl}-4,5,6,7-tetrahydro-1H-pyrazolo[4,3-c]pyridin-3-yl)-biphenyl-3-carboxylic acid (benzothiazol-2-ylmethyl)-amide]: the Ki is 72.3 nM.
With `CC(=O)N1CCc2c(c(-c3ccc(Cl)c(-c4cccc(C(=O)N[C@@H](C)c5nc6cc(F)c(F)cc6[nH]5)c4)c3)nn2CCCN2CCCC2)C1` [Example 37, (S)-5′-[5-Acetyl-1-(3-pyrrolidin-1-yl-propyl)-4,5,6,7-tetrahydro-1H-pyrazolo[4,3-c]pyridin-3-yl]-2′-chloro-biphenyl-3-carboxylic acid [1-(5,6-difluoro-1H-benzoimidazol-2-yl)-ethyl]-amide], the Ki stood at 38.5 nM.
For `CN(C)S(=O)(=O)c1cccc2c1N(CCNC(=O)c1cccc(-c3cc(-c4nn(CCCN5CCCC5)c5c4CN(S(C)(=O)=O)CC5)ccc3Cl)c1)CC2` [Example 10, 2′-Chloro-5′-[5-methanesulfonyl-1-(3-pyrrolidin-1-yl-propyl)-4,5,6,7-tetrahydro-1H-pyrazolo[4,3-c]pyridin-3-yl]-biphenyl-3-carboxylic acid [2-(7-dimethylsulfamoyl-2,3-dihydro-indol-1-yl)-ethyl]-amide], the Ki is 49.4 nM.
The same measure, in the same setting: the result for `COc1ccc(NCCNC(=O)c2cccc(-c3cc(-c4nn(CCCN5CCC(N6CCCC6=O)CC5)c5c4CN(S(C)(=O)=O)CC5)ccc3Cl)c2)cc1` [Example 31, 2′-Chloro-5′-(5-methanesulfonyl-1-{3-[4-(2-oxo-pyrrolidin-1-yl)-piperidin-1-yl]-propyl}-4,5,6,7-tetrahydro-1H-pyrazolo[4,3-c]pyridin-3-yl)-biphenyl-3-carboxylic acid [2-(4-methoxy-phenylamino)-ethyl]-amide] reads 27.3 nM; that for `CS(=O)(=O)N1CCc2c(c(-c3ccc(Cl)c(-c4cccc(C(=O)NCc5nc(-c6ccccc6)cs5)c4)c3)nn2CCCN2CCCC2)C1` [Example 23, 2′-Chloro-5′-[5-methanesulfonyl-1-(3-pyrrolidin-1-yl-propyl)-4,5,6,7-tetrahydro-1H-pyrazolo[4,3-c]pyridin-3-yl]-biphenyl-3-carboxylic acid (4-phenyl-thiazol-2-ylmethyl)-amide], 88.9 nM; that for `COc1ccc(NCCNC(=O)c2cccc(-c3cc(-c4nn(CCCN5CCCC5)c5c4CN(S(C)(=O)=O)CC5)ccc3Cl)c2)cc1Cl` [Example 4, 2′-Chloro-5′-[5-methanesulfonyl-1-(3-pyrrolidin-1-yl-propyl)-4,5,6,7-tetrahydro-1H-pyrazolo[4,3-c]pyridin-3-yl]-biphenyl-3-carboxylic acid [2-(3-chloro-4-methoxy-phenylamino)-ethyl]-amide], 253 nM.
`Cc1ccc2[nH]c(C(C)NC(=O)c3cccc(-c4cc(-c5nn(CCCN6CCC(N7CCCC7=O)CC6)c6c5CN(S(C)(=O)=O)CC6)ccc4Cl)c3)nc2c1` (centres unmarked) [Example 35, 2′-Chloro-5′-(5-methanesulfonyl-1-{3-[4-(2-oxo-pyrrolidin-1-yl)-piperidin-1-yl]-propyl}-4,5,6,7-tetrahydro-1H-pyrazolo[4,3-c]pyridin-3-yl)-biphenyl-3-carboxylic acid [1-(5-methyl-1H-benzoimidazol-2-yl)-ethyl]-amide]: the Ki worked out at 123 nM.
As for `CC(C)c1ccc(NCCNC(=O)c2cccc(-c3cc(-c4nn(CCCN5CCC(O)C5)c5c4CNCC5)ccc3Cl)c2)cc1` (centres unmarked) [Example 43, 2′-Chloro-5′-{1-[3-(3-hydroxy-pyrrolidin-1-yl)-propyl]-4,5,6,7-tetrahydro-1H-pyrazolo[4,3-c]pyridin-3-yl}-biphenyl-3-carboxylic acid [2-(4-isopropyl-phenylamino)-ethyl]-amide], the Ki is 48.5 nM.
Regarding `COc1ccc(NC(=O)CNC(=O)c2cccc(-c3cc(-c4nn(CCCN5CCCC5)c5c4CN(S(C)(=O)=O)CC5)ccc3Cl)c2)cc1` [Example 26, 2′-Chloro-5′-[5-methanesulfonyl-1-(3-pyrrolidin-1-yl-propyl)-4,5,6,7-tetrahydro-1H-pyrazolo[4,3-c]pyridin-3-yl]-biphenyl-3-carboxylic acid [(4-methoxy-phenylcarbamoyl)-methyl]-amide], the Ki was 712 nM.
